One experiment concerns the target T1, recombinant human CK2 (Homo sapiens, UniProt P68400).
T1 construct: purchased Upstate
Nature of the experiment: CK2 assay, cell-free, 33P-ATP filter plate. Type of experiment: biochemical. As for the experimental part: Modulatory activity of compounds described herein was assessed in vitro in cell-free CK2 assays by the following method.
Test compounds in aqueous solution were added at a volume of 10 microliters, to a reaction mixture comprising 10 microliters Assay Dilution Buffer (ADB; 20 mM MOPS, pH 7.2, 25 mM beta-glycerolphosphate, 5 mM EGTA, 1 mM sodium orthovanadate and 1 mM dithiothreitol), 10 microliters of substrate peptide (RRRDDDSDDD SEQ ID NO.: 4, dissolved in ADB at a concentration of 1 mM), 10 microliters of recombinant human CK2 (25 ng dissolved in ADB; Upstate). Reactions were initiated by the addition of 10 microliters of ATP Solution (90% 75 mM MgCl2, 75 micromolar ATP dissolved in ADB; 10% [γ-^33P]ATP (stock 1 mCi/100 μl; 3000 Ci/mmol (Perkin Elmer) and maintained for 10 minutes at 30 degrees C. The reactions were quenched with 100 microliters of 0.75% phosphoric acid, then transferred to and filtered through a phosphocellulose filter plate (Millipore). After washing each well 5 times with 0.75% phosphoric acid, the plate was dried under vacuum for 5 min and, following the addition of 15 ul of scintillation fluid to each well, the residual radioactivity was measured using a Wallac luminescence counter.

In the next experiment the target is recombinant human PIM2 (Homo sapiens, UniProt Q9P1W9). Nature of the experiment: PIM-2 kinase assay, 33P-ATP filter plate. Type of experiment: biochemical. The note with it: PIM2, 5 μM ATP; read-out: PIM2 IC50 (printed in the PIM1: IC50 (μM) column). As to the method:
Test compounds dissolved and diluted in DMSO (2 μl) were added to a reaction mixture comprising 10 μl of 5× Reaction Buffer (40 mM MOPS pH 7.0, 5 mM EDTA), 10 μl of recombinant human PIM2 solution (4 ng PIM-2 dissolved in dilution buffer (20 mM MOPS pH 7.0; EDTA 1 mM; 5% Glycerol; 0.01% Brij 35; […]; […] 2-mercaptoethanol; 1 mg/ml BSA)) and 8 ul of water. Reactions were initiated by the addition of 10 ul of ATP Solution ([…] (15 mM MgCl2; 75 uM ATP) 1% ([γ-33P]ATP: Stock 1 mCi/100 μl; 3000 Ci/mmol (Perkin Elmer)) and 10 ul of substrate peptide solution (RSRSSYPAGT SEQ ID NO.: 6, dissolved in water at a concentration of 1 mM), Reactions were maintained for 10 min at 30° C. The reactions were quenched with 100 ul of 0.75% Phosphoric acid, then transferred to and filtered through a Phosphocellulose filter plate (Millipore, MSPH-N6B-50). After washing each well 4 times with 0.75% Phosphoric acid, scintillation fluid (20 uL) was added to each well and the residual radioactivity was measured using a Wallac luminescence counter.

A word on the IC50: it is the concentration that inhibits the measured activity by half.

Sequence of recombinant human PIM2 (Q9P1W9 whole entry): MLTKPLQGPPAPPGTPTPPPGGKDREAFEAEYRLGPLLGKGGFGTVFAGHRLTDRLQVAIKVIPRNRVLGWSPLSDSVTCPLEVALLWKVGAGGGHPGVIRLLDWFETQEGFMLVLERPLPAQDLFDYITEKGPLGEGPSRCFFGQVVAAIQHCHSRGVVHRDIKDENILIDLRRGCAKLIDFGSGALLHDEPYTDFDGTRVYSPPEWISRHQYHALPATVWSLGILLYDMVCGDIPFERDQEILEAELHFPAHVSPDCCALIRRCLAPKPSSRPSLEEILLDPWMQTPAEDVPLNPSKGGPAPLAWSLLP
T1 sequence (P68400 whole entry): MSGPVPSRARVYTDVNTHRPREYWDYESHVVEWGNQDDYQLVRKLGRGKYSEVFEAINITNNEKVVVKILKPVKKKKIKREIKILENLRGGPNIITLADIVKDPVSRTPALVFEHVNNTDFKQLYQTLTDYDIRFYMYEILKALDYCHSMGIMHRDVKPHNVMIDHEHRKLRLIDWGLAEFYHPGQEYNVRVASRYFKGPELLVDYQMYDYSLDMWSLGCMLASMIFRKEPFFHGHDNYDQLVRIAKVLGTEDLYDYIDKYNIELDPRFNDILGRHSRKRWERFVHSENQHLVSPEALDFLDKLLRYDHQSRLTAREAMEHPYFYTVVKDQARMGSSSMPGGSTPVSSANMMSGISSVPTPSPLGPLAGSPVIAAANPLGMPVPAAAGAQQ
T1 sequence (P67870 whole entry partner): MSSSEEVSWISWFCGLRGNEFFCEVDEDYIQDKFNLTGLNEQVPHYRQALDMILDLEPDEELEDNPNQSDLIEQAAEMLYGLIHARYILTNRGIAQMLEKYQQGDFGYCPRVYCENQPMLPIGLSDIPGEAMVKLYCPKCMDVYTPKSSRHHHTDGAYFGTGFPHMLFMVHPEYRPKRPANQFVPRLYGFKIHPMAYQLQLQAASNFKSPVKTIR

Consider `O=C1NC(=O)/C(=C/c2cnn3ccc(-c4ccc(C(=O)NCC5CC5)s4)nc23)N1`, for which the IC50 on recombinant human CK2 is less than 100 nM; at recombinant human PIM2, 0.58 µM.

As to `CCOCCNC(=O)c1ccc(-c2ccn3ncc(/C=C4\NC(=O)NC4=O)c3n2)s1`, the IC50 was less than 100 nM at recombinant human CK2 and 1.06 µM on recombinant human PIM2.

As to `CC(O)CNC(=O)c1ccc(-c2ccn3ncc(/C=C4\NC(=O)NC4=O)c3n2)s1` (stereo not drawn), the IC50 is less than 100 nM at recombinant human CK2 and 0.54 µM at recombinant human PIM2.

(Values after patent publication US8367681B2, “Pyrazolopyrimidines and related heterocycles as kinase inhibitors” (Cylene Pharmaceuticals, Inc., priority 2009, dated 2013).)
